# Active and inactive are the calls of the source. No cut-off for these calls is given here.
# Experiments:
# [1] = molecular target: T1, Cereblon/Ikaros (Homo sapiens) (UniProt Q96SW2+Q13422); assay: Protac activity at CRBN/IKZF1 in human MM1.S cells assessed as induction of IKZF1 degradation at 1 uM incubated for 6 hrs relative to control; assay type: cell-based
# [2] = physchem; details: buffer, pH 7.4
# Description: Lipophilicity, logD of the compound at pH 7.4 by HPLC analysis
# [3] = Stability of the compound in acetonitrile/buffer mixture at pH 7.4 assessed as parent compound remaining measured after 24 hrs by HPLC analysis; assay type: physicochemical; details: read-out: Stabilty
# [4] = Protac activity at CRBN/IKZF3 in human MM1.S cells assessed as induction of IKZF3 degradation at 0.1 to 1 uM measured after 16 hrs by Western blotting analysis; details: dose 0.1-1 µM
# [5] = molecular target: T1, Cereblon/Ikaros (Homo sapiens); assay: Protac activity at CRBN/IKZF1 in human MM1.S cells assessed as protein levels at 1 uM measured after 72 hrs by Western blot analysis relative to control; assay type: cell-based
# [6] = molecular target: Protein cereblon/Cyclin-dependent kinase 4 (Homo sapiens) (UniProt P11802+Q96SW2); assay: Protac activity at CRBN/CDK4 in human MM1.S cells assessed as protein levels at 1 uM measured after 72 hrs by Western blot analysis relative to control; assay type: cell-based
# [7] = molecular target: Protein cereblon/Zinc finger protein Aiolos (Homo sapiens) (UniProt Q96SW2+Q9UKT9); assay: Protac activity at CRBN/IKZF3 in human MM1.S cells assessed as protein levels at 1 uM measured after 72 hrs by Western blot analysis relative to control; assay type: cell-based
# [8] = test system: MM1.S; assay: Cytotoxicity against human MM1.S cells assessed as effect on cell viability at 0.1 to 10 uM incubated for 72 hrs by luminescence based analysis; assay type: functional; details: dose 0.1-10 µM
# [9] = Stability in human plasma assessed as half life measured up tp 120 mins by HPLC analysis; assay type: ADME, cell-free
# Chain of Protein cereblon/Cyclin-dependent kinase 4 (Homo sapiens) (P11802 2-303 limits assumed): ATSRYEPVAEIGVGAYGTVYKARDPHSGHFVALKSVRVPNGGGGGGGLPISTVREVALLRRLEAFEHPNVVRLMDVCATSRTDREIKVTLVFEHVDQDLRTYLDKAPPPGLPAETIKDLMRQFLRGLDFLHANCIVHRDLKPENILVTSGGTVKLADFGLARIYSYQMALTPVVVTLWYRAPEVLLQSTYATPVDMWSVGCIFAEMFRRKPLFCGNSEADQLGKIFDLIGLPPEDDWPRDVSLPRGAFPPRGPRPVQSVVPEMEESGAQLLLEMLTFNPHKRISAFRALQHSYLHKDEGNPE
# Chain of Protein cereblon/Cyclin-dependent kinase 4 (Homo sapiens) (Q96SW2 whole entry partner): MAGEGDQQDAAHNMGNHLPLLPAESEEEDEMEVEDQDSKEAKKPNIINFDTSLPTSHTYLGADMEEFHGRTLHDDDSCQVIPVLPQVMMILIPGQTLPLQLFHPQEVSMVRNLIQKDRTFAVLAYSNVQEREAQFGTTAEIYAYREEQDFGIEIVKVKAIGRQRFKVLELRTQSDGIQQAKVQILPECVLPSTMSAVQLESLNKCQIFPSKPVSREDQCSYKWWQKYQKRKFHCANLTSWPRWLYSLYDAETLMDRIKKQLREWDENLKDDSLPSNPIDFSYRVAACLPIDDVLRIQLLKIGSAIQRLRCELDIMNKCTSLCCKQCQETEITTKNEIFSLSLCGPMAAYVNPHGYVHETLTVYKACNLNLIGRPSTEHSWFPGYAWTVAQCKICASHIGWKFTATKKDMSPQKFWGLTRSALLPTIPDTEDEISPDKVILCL
# Chain of Protein cereblon/Zinc finger protein Aiolos (Homo sapiens) (Q96SW2 whole entry, looked up): as the sequence (Q96SW2 whole entry partner) above
# Chain of Protein cereblon/Zinc finger protein Aiolos (Homo sapiens) (Q9UKT9 whole entry, looked up): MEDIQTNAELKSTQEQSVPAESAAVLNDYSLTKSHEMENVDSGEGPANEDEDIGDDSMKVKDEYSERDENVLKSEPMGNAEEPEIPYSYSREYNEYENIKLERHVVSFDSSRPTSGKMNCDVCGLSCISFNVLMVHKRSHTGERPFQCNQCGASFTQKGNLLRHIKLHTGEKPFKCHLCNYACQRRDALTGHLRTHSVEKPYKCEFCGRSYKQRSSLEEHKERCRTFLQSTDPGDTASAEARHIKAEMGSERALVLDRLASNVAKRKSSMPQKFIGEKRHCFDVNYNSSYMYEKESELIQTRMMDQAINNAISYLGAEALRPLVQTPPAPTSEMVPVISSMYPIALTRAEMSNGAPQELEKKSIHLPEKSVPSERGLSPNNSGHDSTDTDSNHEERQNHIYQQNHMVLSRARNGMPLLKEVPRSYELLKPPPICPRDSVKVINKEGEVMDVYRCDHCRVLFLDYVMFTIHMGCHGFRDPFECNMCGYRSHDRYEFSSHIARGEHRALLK
Compound,Activity [1],logD [2],remaining at 24 h [3],also measured
O=C1CCC(N2C(=O)c3ccc(NCCOCCOCCOCc4ccccc4)cc3C2=O)C(=O)N1 (centres undefined),19%,2.6,70%,–
CC(=O)c1c(C)c2cnc(Nc3ccc(N4CCN(CC(=O)NCCOCCOCCOCC(=O)Nc5cccc6c5CN(C5CCC(=O)NC5=O)C6=O)CC4)cn3)nc2n(C2CCCC2)c1=O (centres undefined),–,–,–,Activity [4]: inactive; Activity [5]: > 95%; Activity [6]: 56%; Activity [7]: > 95%
CC(=O)c1c(C)c2cnc(Nc3ccc(N4CCN(CC(=O)NCCOCCOCCOCC(=O)NCc5cccc6c5C(=O)N(C5CCC(=O)NC5=O)C6=O)CC4)cn3)nc2n(C2CCCC2)c1=O (centres undefined),–,–,–,Activity [4]: Active; Activity [5]: > 95%; Activity [8]: Active; Activity [6]: 68%; Activity [7]: > 95%
O=C(COCCOCCOCc1ccccc1)NCc1cccc2c1C(=O)N(C1CCC(=O)NC1=O)C2=O (centres undefined),73%,2,21%,half-life [9]: > 2 h
O=C(COc1cccc2c1C(=O)N(C1CCC(=O)NC1=O)C2=O)NCCOCCOCCOCc1ccccc1 (centres undefined),0%,2,17%,–
CC(=O)c1c(C)c2cnc(Nc3ccc(N4CCN(CC(=O)NCCOCCOCCOCCNc5cccc6c5C(=O)N(C5CCC(=O)NC5=O)C6=O)CC4)cn3)nc2n(C2CCCC2)c1=O (centres undefined),–,–,–,Activity [5]: 2%; Activity [8]: Active; Activity [6]: 26%; Activity [7]: 2%
CC(=O)c1c(C)c2cnc(Nc3ccc(N4CCN(CC(=O)NCCOCCOCCOCCNC(=O)COc5cccc6c5C(=O)N(C5CCC(=O)NC5=O)C6=O)CC4)cn3)nc2n(C2CCCC2)c1=O (centres undefined),–,–,–,Activity [4]: inactive; Activity [5]: > 95%; Activity [6]: 66%; Activity [7]: > 95%
O=C1CCC(N2C(=O)c3cccc(OCCOCCOCCOCc4ccccc4)c3C2=O)C(=O)N1 (centres undefined),5%,2.6,46%,–
O=C1c2cccc(OCCOCCOCCOCc3ccccc3)c2C(=O)N1C1CCCCC1,–,–,90%,–
O=C1CCC(N2C(=O)c3ccc(C#CCOCCOCCOCc4ccccc4)cc3C2=O)C(=O)N1 (centres undefined),–,3.3,1%,–
O=C1CCC(N2Cc3cc(NC(=O)COCCOCCOCc4ccccc4)ccc3C2=O)C(=O)N1 (centres undefined),6%,1.8,73%,–
O=C1CCC(N2C(=O)c3ccc(OCCOCCOCCOCc4ccccc4)cc3C2=O)C(=O)N1 (centres undefined),0%,2.9,30%,half-life [9]: > 2 h
O=C1CCC(N2Cc3c(NCCOCCOCCOCc4ccccc4)cccc3C2=O)C(=O)N1 (centres undefined),5%,2.4,74%,half-life [9]: > 2 h
O=C1CCC(N2C(=O)c3cccc(C(=O)NCCOCCOCCOCc4ccccc4)c3C2=O)C(=O)N1 (centres undefined),–,1.9,3%,–
O=C1CCC(N2Cc3c(OCCOCCOCCOCc4ccccc4)cccc3C2=O)C(=O)N1 (centres undefined),22%,–,78%,–
O=C1CCC(N2C(=O)c3cccc(C#CCOCCOCCOCc4ccccc4)c3C2=O)C(=O)N1 (centres undefined),–,3.2,6%,–
O=C1CCC(N2C(=O)c3cccc(NCCOCCOCCOCc4ccccc4)c3C2=O)C(=O)N1 (centres undefined),64%,3.1,80%,half-life [9]: > 2 h
O=C1CCC(N2Cc3c(NC(=O)COCCOCCOCc4ccccc4)cccc3C2=O)C(=O)N1 (centres undefined),0%,1.6,79%,half-life [9]: 1.45 h
O=C(COc1ccc2c(c1)C(=O)N(C1CCC(=O)NC1=O)C2=O)NCCOCCOCCOCc1ccccc1 (centres undefined),0%,2,15%,–
O=C1CCC(N2Cc3cc(NCCOCCOCCOCc4ccccc4)ccc3C2=O)C(=O)N1 (centres undefined),0%,2.1,79%,–
O=C1NCCCC1N1C(=O)c2cccc(OCCOCCOCCOCc3ccccc3)c2C1=O (centres undefined),–,–,99%,–
O=C1CCC(N2C(=O)c3ccccc3C2=O)C(=O)N1CCOCCOCCOCc1ccccc1 (centres undefined),–,–,19%,–
O=C(CNc1cccc2c1C(=O)N(C1CCC(=O)NC1=O)C2=O)NCCOCCOCCOCc1ccccc1 (centres undefined),29%,2.1,68%,half-life [9]: > 2 h
O=C1CCC(N2Cc3cc(OCCOCCOCCOCc4ccccc4)ccc3C2=O)C(=O)N1 (centres undefined),16%,2.2,73%,half-life [9]: > 2 h
O=C(COCCOCCOCc1ccccc1)NCc1ccc2c(c1)C(=O)N(C1CCC(=O)NC1=O)C2=O (centres undefined),0%,1.8,16%,–
O=C(CNc1ccc2c(c1)C(=O)N(C1CCC(=O)NC1=O)C2=O)NCCOCCOCCOCc1ccccc1 (centres undefined),6%,1.8,56%,–
O=C1CCC(N2C(=O)c3ccc(NC(=O)COCCOCCOCc4ccccc4)cc3C2=O)C(=O)N1 (centres undefined),1%,2.3,11%,–
O=C1CCC(N2C(=O)c3ccc(C(=O)NCCOCCOCCOCc4ccccc4)cc3C2=O)C(=O)N1 (centres undefined),–,1.9,1%,–
O=C1CCC(N2C(=O)c3cccc(NC(=O)COCCOCCOCc4ccccc4)c3C2=O)C(=O)N1 (centres undefined),14%,2.6,15%,half-life [9]: 1.97 h
